Data published in patent US20110052732A1, “MINERAL ABSORPTION ACCELERATOR AND IRON DEFICIENCY ANEMIA IMPROVER OF FOOD COMPOSITION” (FUJIFILM Corporation, priority 2008, published 2011).

System: SD rats
Assay: Mineral balance test in rats (absorption rate, internal retention rate, serum concentration)
Type: in vivo, rat
Settings: oral aqueous solution 2.0 g/day; for Absorption rate of calcium / Absorption rate of iron / Absorption rate of magnesium / Absorption rate of zinc / Internal retention rate of calcium / Internal retention rate of iron / Internal retention rate of magnesium / Internal retention rate of zinc: 14 days, then urine and feces collected for 4 days
Description: SD rats (males) of 4 weeks of age after birth were preliminarily reared for 1 week and then divided into a control group and 6 sample ingestion groups, each group consisting of 6 animals, at random based on body weight. In the rats of salacinol administration group, 0.1% salacinol aqueous solution was orally administered at a dose of 2.0 g/day per unit weight of rat. In the rats of voglibose administration group, 0.4% voglibose aqueous solution was orally administered at a dose of 2.0 g/day per unit weight of rat. In the rats of acarbose administration group, 0.4% acarbose aqueous solution was orally administered at a dose of 2.0 g/day per unit weight of rat. In the rats of Salacia extract powder administration group, 1% Salacia extract powder aqueous solution was orally administered at a dose of 2.0 g/day per unit weight of rat. In the rats of mulberry extract powder administration group, 1% mulberry extract powder aqueous solution was orally administered at a dose of 2.0 g/day per unit weight of rat. In the rats of Salacia extract powder+green tea extract administration group, 1% Salacia extract powder+1% green tea extract mixed aqueous solution was orally administered at a dose of 2.0 g/day per unit weight of rat. In the rats of control group, water was orally administered at a dose of 2.0 g/day per unit weight of rat. Each rat was reared with a solid feed (CRF-1 mfd. by Oriental Yeast) for 14 days and then transferred into a cage for metabolism analysis, and urine and feces were collected for a period of 4 days to measure concentrations of iron, calcium, magnesium and zinc. Detection of minerals from feces was carried out using inductively coupled plasma emission spectrometry, and those from urine and serum using atomic absorption method. Absorption rate and internal holding rate of each mineral were calculated using the following formulae. Absorbed amount=ingested amount−discharged amount into feces Absorption rate (%)=absorbed amount÷ingested amount×100 Internally retained amount=absorbed amount−discharged amount into urine Internal retention rate (%)=internally retained amount÷ingested amount×100 Results of the absorption rate and internal retention rate of minerals and concentration of mineral in serum by the mineral balance test are respectively shown in Tables 3 to 5.

OCC(CO)N[C@H]1C[C@](O)(CO)[C@@H](O)[C@H](O)[C@H]1O [Voglibose, voglibose]
Absorption rate of calcium: 32.5% | Absorption rate of iron: 37.8% | Absorption rate of magnesium: 21.2% | Absorption rate of zinc: 29.8% | Internal retention rate of calcium: 32.1% | Internal retention rate of iron: 33.9% | Internal retention rate of magnesium: 24.0% | Internal retention rate of zinc: 18.6% | Concentration of calcium in serum: 10.9 mg/dL | Concentration of iron in serum: 292.5 µg/dL | Concentration of magnesium in serum: 2.04 mg/dL | Concentration of zinc in serum: 120.2 µg/dL

C[C@H]1O[C@H](O[C@H]2[C@H](O)[C@@H](O)[C@@H](O[C@H]3[C@H](O)[C@@H](O)C(O)O[C@@H]3CO)O[C@@H]2CO)[C@H](O)[C@@H](O)[C@@H]1N[C@H]1C=C(CO)[C@@H](O)[C@H](O)[C@H]1O (stereo partly drawn) [Acarbose, acarbose]
Absorption rate of calcium: 32.8% | Absorption rate of iron: 37.5% | Absorption rate of magnesium: 20.8% | Absorption rate of zinc: 29.3% | Internal retention rate of calcium: 31.5% | Internal retention rate of iron: 32.8% | Internal retention rate of magnesium: 23.1% | Internal retention rate of zinc: 18.4% | Concentration of calcium in serum: 10.9 mg/dL | Concentration of iron in serum: 289.3 µg/dL | Concentration of magnesium in serum: 2.01 mg/dL | Concentration of zinc in serum: 121.3 µg/dL

O=S(=O)([O-])O[C@@H](CO)[C@H](O)C[S@+]1C[C@@H](O)[C@H](O)[C@H]1CO [Salacinol]
Absorption rate of calcium: 33.2% | Absorption rate of iron: 38.5% | Absorption rate of magnesium: 20.5% | Absorption rate of zinc: 30.1% | Internal retention rate of calcium: 32.3% | Internal retention rate of iron: 34.2% | Internal retention rate of magnesium: 23.6% | Internal retention rate of zinc: 19.5% | Concentration of calcium in serum: 11.8 mg/dL | Concentration of iron in serum: 298.6 µg/dL | Concentration of magnesium in serum: 2.06 mg/dL | Concentration of zinc in serum: 122.7 µg/dL
